Experimental data as given in US20260285850A1, “SUBSTITUTED OXAZOLIDINONES AND IMIDAZOLINONES AS HERBICIDES” (FMC CORPORATION, priority 2023, published 2026).

Assays:
Assay type in all cases: in vivo
[1] = tested on: barnyardgrass (Echinochloa crus-galli); experiment: Test A preemergence soil spray, visual injury rating 0-100; conditions: 10 days
Procedure, shortened: (§1)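 Rating: visual, day 10, untreated plants as reference, 0 no effect to 100 full control. Plants were in loam-sand and were treated either preemergence via directed soil spray or postemergence at the one- to two-leaf stage.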

[2] = tested on: blackgrass (Alopecurus myosuroides); experiment: as above; conditions: 10 days
Procedure, shortened: as §1

corn (Zea mays) [3] = experiment: as above; conditions: 10 days
Procedure, shortened: as §1

[4] = tested on: green foxtail (Setaria viridis); experiment: as above; conditions: 10 days
Procedure, shortened: as §1

kochia (Bassia scoparia) [5] = experiment: as above; conditions: 10 days
Procedure, shortened: as §1

[6] = tested on: oat, wild (wild oat, Avena fatua); experiment: as above; conditions: 10 days
Procedure, shortened: as §1

[7] = tested on: palmer (palmer amaranth, palmer pigweed, Amaranthus palmeri); experiment: as above; conditions: 10 days
Procedure, shortened: as §1

[8] = tested on: ragweed (common ragweed, Ambrosia artemisiifolia); experiment: as above; conditions: 10 days
Procedure, shortened: as §1

[9] = tested on: ryegrass, Italian (italian ryegrass, Lolium multiflorum); experiment: as above; conditions: 10 days
Procedure, shortened: as §1

soybean (Glycine max) [10] = experiment: as above; conditions: 10 days
Procedure, shortened: as §1

[11] = tested on: wheat (Triticum aestivum); experiment: as above; conditions: 10 days
Procedure, shortened: as §1

[12] = tested on: barnyardgrass (Echinochloa crus-galli); experiment: Test A postemergence application, visual injury rating 0-100
Procedure, shortened: as §1

[13] = tested on: blackgrass (Alopecurus myosuroides); experiment: as above
Procedure, shortened: as §1

corn (Zea mays) [14] = experiment: as above
Procedure, shortened: as §1

[15] = tested on: galium (catchweed bedstraw, Galium aparine); experiment: as above; conditions: 62 g ai/ha, postemergence, 10 days, 0 = no effect, 100 = complete control
Procedure, shortened: as §1

[16] = tested on: green foxtail (Setaria viridis); experiment: as above
Procedure, shortened: as §1

[17] = tested on: horseweed (Erigeron canadensis); experiment: as above
Procedure, shortened: as §1

kochia (Bassia scoparia) [18] = experiment: as above
Procedure, shortened: as §1

[19] = tested on: oat, wild (wild oat, Avena fatua); experiment: as above
Procedure, shortened: as §1

[20] = tested on: palmer (palmer amaranth, palmer pigweed, Amaranthus palmeri); experiment: as above
Procedure, shortened: as §1

[21] = tested on: ragweed (common ragweed, Ambrosia artemisiifolia); experiment: as above
Procedure, shortened: as §1

[22] = tested on: ryegrass, Italian (italian ryegrass, Lolium multiflorum); experiment: as above
Procedure, shortened: as §1

soybean (Glycine max) [23] = experiment: as above
Procedure, shortened: as §1

[24] = tested on: wheat (Triticum aestivum); experiment: as above
Procedure, shortened: as §1

[25] = tested on: barnyardgrass (Echinochloa crusgalli); experiment: Test B flooded paddy test, visual plant response rating 0-100; conditions: 250 g ai/ha, Flood, applied to paddy water, evaluated after 13 days
Procedure, shortened: (§2)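 Compounds applied to standing paddy water (3 cm above soil, maintained for the test duration) on 2-leaf-stage plants; visual rating vs controls at 13 days, greenhouse.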

[26] = tested on: ducksalad (Heteranthera limosa); experiment: as above; conditions: 250 g ai/ha, Flood, applied to paddy water, evaluated after 13 days
Procedure, shortened: as §2

rice (Oryza sativa) = experiment: as above; conditions: 250 g ai/ha, Flood, applied to paddy water, evaluated after 13 days
Procedure, shortened: as §2

[27] = tested on: sedge, umbrella (small-flower umbrella sedge, Cyperus difformis); experiment: as above; conditions: 250 g ai/ha, Flood, applied to paddy water, evaluated after 13 days
Procedure, shortened: as §2

[28] = 62 g ai/ha, 0 = no effect, 100 = complete control
[29] = 62 g ai/ha, postemergence, 10 days, 0 = no effect, 100 = complete control
[30] = Postemergence, 16 g ai/ha, greenhouse 10 days, 0 no effect, 100 complete control

CC1(C(=O)NC2CC=C(C(=O)O)C2)CN(c2cc(F)cc(Cl)c2)C(=O)O1 (stereo not drawn) [Compound 160]
0: Barnyardgrass plant response rating ([1]; 16 g ai/ha, 0 to 100 scale) | Barnyardgrass plant response rating (0-100) [1, 28] | Blackgrass plant response rating ([2]; 16 g ai/ha, 0 to 100 scale) | Blackgrass plant response rating (0-100) [2, 28] | Corn plant response rating (corn (Zea mays) [3]; 16 g ai/ha, 0 to 100 scale) | Corn plant response rating (0-100) (corn (Zea mays) [3]; [28]) | Foxtail, Green plant response rating ([4]; 16 g ai/ha, 0 to 100 scale) | Foxtail, Green plant response rating (0-100) [4, 28] | Kochia plant response rating (kochia (Bassia scoparia) [5]; 16 g ai/ha, 0 to 100 scale) | Kochia plant response rating (0-100) (kochia (Bassia scoparia) [5]; [28]) | Oat, Wild plant response rating ([6]; 16 g ai/ha, 0 to 100 scale) | Oat, Wild plant response rating (0-100) [6, 28] | Pigweed, Palmer plant response rating ([7]; 16 g ai/ha, 0 to 100 scale) | Pigweed, Palmer plant response rating (0-100) [7, 28] | Ragweed plant response rating ([8]; 16 g ai/ha, 0 to 100 scale) | Ragweed plant response rating (0-100) [8, 28] | Ryegrass, Italian plant response rating ([9]; 16 g ai/ha, 0 to 100 scale) | Ryegrass, Italian plant response rating (0-100) [9, 28] | Soybean plant response rating (soybean (Glycine max) [10]; 16 g ai/ha, 0 to 100 scale) | Soybean plant response rating (0-100) (soybean (Glycine max) [10]; [28]) | Wheat plant response rating ([11]; 16 g ai/ha, 0 to 100 scale) | Wheat plant response rating (0-100) [11, 28] | Barnyardgrass plant response rating (0-100) [12, 29] | Barnyardgrass plant response rating (0 to 100 scale) [12, 30] | Blackgrass plant response rating (0-100) [13, 29] | Blackgrass plant response rating (0 to 100 scale) [13, 30] | Corn plant response rating (0-100) (corn (Zea mays) [14]; [29]) | Corn plant response rating (0 to 100 scale) (corn (Zea mays) [14]; [30]) | Galium plant response rating (0-100) [15] | Foxtail, Green plant response rating (0-100) [16, 29] | Foxtail, Green plant response rating (0 to 100 scale) [16, 30] | Horseweed plant response rating (0-100) [17, 29] | Horseweed plant response rating (0 to 100 scale) [17, 30] | Kochia plant response rating (0-100) (kochia (Bassia scoparia) [18]; [29]) | Kochia plant response rating (0 to 100 scale) (kochia (Bassia scoparia) [18]; [30]) | Oat, Wild plant response rating (0-100) [19, 29] | Oat, Wild plant response rating (0 to 100 scale) [19, 30] | Pigweed, Palmer plant response rating (0-100) [20, 29] | Pigweed, Palmer plant response rating (0 to 100 scale) [20, 30] | Ragweed plant response rating (0-100) [21, 29] | Ragweed plant response rating (0 to 100 scale) [21, 30] | Ryegrass, Italian plant response rating (0-100) [22, 29] | Ryegrass, Italian plant response rating (0 to 100 scale) [22, 30] | Soybean plant response rating (0-100) (soybean (Glycine max) [23]; [29]) | Soybean plant response rating (0 to 100 scale) (soybean (Glycine max) [23]; [30]) | Wheat plant response rating (0-100) [24, 29] | Wheat plant response rating (0 to 100 scale) [24, 30] | Plant response rating, Barnyardgrass (0 to 100 scale, 0 is no effect and 100 is complete control) [25] | Plant response rating, Rice (0 to 100 scale, 0 is no effect and 100 is complete control) (rice (Oryza sativa))
25: Plant response rating, Sedge, Umbrella (0 to 100 scale, 0 is no effect and 100 is complete control) [27]
55: Plant response rating, Ducksalad (0 to 100 scale, 0 is no effect and 100 is complete control) [26]
